assay: not given; conditions: commonly used anionic surfactants, table values; cited from earlier work

| Molecule | Krafft Temperature |
| --- | --- |
| CCCCCCCCCCCCOS(=O)(=O)O.N [Ammonium lauryl sulfate (ALS), Ammonium lauryl sulfate] | 10 °C |
| CCCCCCCCCCCCCCCCOS(=O)(=O)[O-].[Na+] [Sodium cetyl sulfate] | 45.0 °C |
| CCCCCCCCCCOS(=O)(=O)[O-].[Na+] [Sodium decyl sulfate] | 8.0 °C |
| CCCCCCCCCCCCCCCCS(=O)(=O)[O-].[Na+] [Sodium hexadecyl sulfonate] | 57.0 °C |
| CCCCCCCCCCCCOS(=O)(=O)[O-].[Na+] [Sodium lauryl sulfate (SLS), Sodium lauryl sulfate] | 16.0 °C |
| CCCCCCCCCCCCCC(=O)[O-].[Na+] [Sodium myristate] | 39 °C |
| CCCCCCCCCCCCCCOS(=O)(=O)[O-].[Na+] [Sodium myristyl sulfate] | 30.0 °C |
| CCCCCCCCCCCCCCS(=O)(=O)[O-].[Na+] [Sodium myristyl sulfonate] | 48.0 °C |
| CCCCCCCCCCCCCCCC(=O)[O-].[Na+] [Sodium palmitate] | 69 °C |
| CCCCCCCCCCCCCCCCCC(=O)[O-].[Na+] [Sodium stearate] | 71 °C |
| CCCCCCCCCCCCCCCCCCOS(=O)(=O)[O-].[Na+] [Sodium stearyl sulfate] | 56.0 °C |
| Sodium laureth sulfate [Sodium laureth sulfate (SLES)] | <0 °C |

assay: Krafft temperature determination of dilute aqueous surfactant in a water bath (dissolution and frothing); type: physicochemical; conditions: 0.012% ceteth-10 phosphate, 0.017% dicetyl phosphate, 0.014% sodium cetostearyl sulfate in distilled water
Protocol: 0.0012 grams of ceteth-10 phosphate (Moravek Lot 671-144-000-A-20190821-JHO) was weighed into a 20 mL glass scintillation vial. 10.0113 grams of distilled water was added to the scintillation vial and the vial was tightly capped and placed in a water bath. […] The surfactant remained as waxy particles sedimented on the bottom of the vial. After equilibration at 53.0° C. for 435 minutes, ceteth-10 phosphate had dissolved and the sample frothed when shaken. The Krafft temperature of a 0.012% ceteth-10 phosphate aqueous solution was determined to be 53.0° C.
0.0019 grams of dicetyl phosphate (Sigma dihexadecyl phosphate lot STBH2863) was weighed into a 20 mL glass scintillation vial. 11.2262 grams of distilled water was added to the scintillation vial and the vial was tightly capped and placed in a water bath. […] After equilibration at 58.0° C. for 450 minutes, dicetyl phosphate had dissolved and the sample frothed when shaken. The Krafft temperature of a 0.017% dicetyl phosphate aqueous solution was determined to be 58.0° C.
0.0024 grams of sodium cetostearyl sulfate (BASF Lanette E Granules Lot 0021826181) was weighed into a 20 mL glass scintillation vial. 17.0763 grams of distilled water was added to the scintillation vial and the vial was tightly capped and placed in a water bath. […] The Krafft temperature of a 0.014% sodium cetostearyl sulfate aqueous solution was determined to be 41.0° C.

| Molecule | Krafft Temperature |
| --- | --- |
| ceteth-10 phosphate [Ceteth - 10 phosphate] | 53 °C |

same assay, conditions: 0.012% ceteth-10 phosphate, 0.017% dicetyl phosphate, 0.014% sodium cetostearyl sulfate in distilled water; listed as ceteth-10 phosphate

| Molecule | Krafft Temperature |
| --- | --- |
| ceteth-10 phosphate [Ceteth - 10 phosphate] | 53 °C |
